Legend:
Assay type in all cases: functional
Pythium [1] = assay: Antifungal activity against Pythium sp. assessed as growth inhibition at 10 ppm by agar dilution method; conditions: read-out: GI
Athelia rolfsii [2] = assay: Antifungal activity against Athelia rolfsii assessed as growth inhibition at 10 ppm by agar dilutopn method; conditions: Agroathelia rolfsii; read-out: GI
Athelia rolfsii [3] = assay: Antifungal activity against Athelia rolfsii assessed as growth inhibition at 100 ppm by agar dilutopn method; conditions: Agroathelia rolfsii; read-out: GI
Pythium [4] = assay: Antifungal activity against Pythium sp. assessed as growth inhibition at 100 ppm by agar dilution method; conditions: read-out: GI

SMILES | inhibition of growth at 10 ppm (Pythium [1]) [%] | inhibition of growth at 10 ppm (Athelia rolfsii [2]) [%] | inhibition of growth at 100 ppm (Athelia rolfsii [3]) [%] | inhibition of growth at 100 ppm (Pythium [4]) [%]
CCCCNP1(=S)OCc2cc(CCCC)ccc2O1 (centres undefined) | 5 | 44 | 70 | 33
CCCCc1ccc2c(c1)COP(=S)(NCC(C)C)O2 (centres undefined) | 8 | 22 | 48 | 28
CCCCc1ccc2c(c1)COP(=S)(NC(C)CC)O2 (centres undefined) | 33 | 24 | 47 | 38
CCCNP1(=S)OCc2cc(C(C)CC)ccc2O1 (centres undefined) | 14 | 48 | 77 | 48
CCC(C)c1ccc2c(c1)COP(=S)(NC(C)C)O2 (centres undefined) | 0 | 28 | 75 | 48
CCCCNP1(=S)OCc2cc(C(C)CC)ccc2O1 (centres undefined) | 4 | 39 | 63 | 11
CCC(C)c1ccc2c(c1)COP(=S)(NCC(C)C)O2 (centres undefined) | 0 | 31 | 63 | 14
CCC(C)NP1(=S)OCc2cc(C(C)CC)ccc2O1 (centres undefined) | 0 | 0 | 37 | 7
CCCNP1(=S)OCc2cc(CCC)ccc2O1 (centres undefined) | 66 | 63 | 92 | 87
CCCc1ccc2c(c1)COP(=S)(NC(C)C)O2 (centres undefined) | 59 | 57 | 81 | 80
CCCCNP1(=S)OCc2cc(CCC)ccc2O1 (centres undefined) | 54 | 66 | 76 | 65
CCCc1ccc2c(c1)COP(=S)(NCC(C)C)O2 (centres undefined) | 44 | 59 | 79 | 57
CCCc1ccc2c(c1)COP(=S)(NC(C)CC)O2 (centres undefined) | 44 | 44 | 64 | 59
CCCNP1(=S)OCc2cc(C(C)C)ccc2O1 (centres undefined) | 57 | 58 | 90 | 75
CC(C)NP1(=S)OCc2cc(C(C)C)ccc2O1 (centres undefined) | 53 | 58 | 90 | 82
CCCCNP1(=S)OCc2cc(C(C)C)ccc2O1 (centres undefined) | 29 | 56 | 70 | 49
CC(C)CNP1(=S)OCc2cc(C(C)C)ccc2O1 (centres undefined) | 14 | 49 | 76 | 18
CCC(C)NP1(=S)OCc2cc(C(C)C)ccc2O1 (centres undefined) | 11 | 34 | 68 | 43
CCCCc1ccc2c(c1)COP(=S)(NCCC)O2 (centres undefined) | 54 | 55 | 71 | 72
CCCCc1ccc2c(c1)COP(=S)(NC(C)C)O2 (centres undefined) | 54 | 42 | 59 | 57
CC(C)OP(=O)(OC(C)C)SCc1ccccc1 [IPROBENFOS] | 42 | 69 | 100 | 89

From ChEMBL document CHEMBL3044540, “Synthesis and Fungicidal Activity of New 6-Alkyl-2-alkylamino-4H-1, 3, 2-benzodioxaphosphorin 2-Sulfides” (1998)
